Assays:
physchem [1] = assay: physchem
physchem [2] = assay: physchem; remark: listed apart in the source
in vitro = conditions: human, Caco-2, pH 7.4, Papp
in vivo [3] = conditions: C57BL/6, mouse, brain and plasma, iv
in vivo [4] = conditions: C57BL/6, mouse, brain and plasma, iv; remark: listed apart in the source
in vivo [5] = conditions: C57BL/6, mouse, plasma, iv
in vivo [6] = conditions: C57BL/6, mouse, brain, iv
in vivo [7] = conditions: C57BL/6, mouse, brain and plasma, po
in vivo [8] = conditions: C57BL/6, mouse, brain and plasma, po; remark: listed apart in the source
in vivo [9] = conditions: C57BL/6, mouse, plasma, po
in vivo [10] = conditions: C57BL/6, mouse, brain, po

SMILES | pKa (physchem [1]) | chromatographic logD (physchem [2]) | Papp A→B at 10 µM (in vitro) [×10⁻⁶ cm/s] | further results
CC1(c2cccc(-c3cccnc3)c2)N=C(N)c2ccccc2O1 (stereo not given) | 8.2 | 1.8 | 17 | 
CCC1(c2cccc(-c3cncnc3)c2)N=C(N)c2ccccc2O1 (stereo not given) | 8.4 | 1.8 |  | 
CC1(c2cccc(-c3cncnc3)c2)N=C(N)c2c(F)cccc2O1 (stereo not given) | 6.9 | 1.6 | 39 | 
CC1(c2cccc(-c3cccnc3)c2)N=C(N)c2c(F)cccc2O1 (stereo not given) | 7 | 2.3 | 23 | 
CC1(c2cccc(-c3cncnc3)c2)N=C(N)c2ccccc2S1 (stereo not given) | 8.3 | 1.7 | 39 | 
COc1ccc(C2(c3cccc(-c4cncnc4)c3)N=C(N)c3nc(C)sc32)cc1 (stereo not given) | 8 | 2 | 18 | Kp uu at […] (in vivo [7]): 0.04; Kp at […] (in vivo [8]): 0.2; fraction unbound at […] (in vivo [9]): 0.1; fraction unbound at […] (in vivo [10]): 0.02
COc1ccc(C2(c3cccc(-c4cncnc4)c3)N=C(N)n3nc(C)cc32)cc1 (stereo not given) | 5.4 | 2.3 | 30 | 
COc1ccc(C2(c3cccc(-c4cncnc4)c3)CCC(N)=N2)cc1 (stereo not given) | 10 | 0.9 | < 0.3 | 
CC1(c2cccc(-c3cncnc3)c2)N=C(N)c2ccccc2O1 (stereo not given) | 8.1 | 1.2 | 31 | 
C[C@]1(c2cccc(-c3cncc(F)c3)c2)N=C(N)[C@@H]2CCCCN21 (relative stereo) |  | 1.5 |  | 
C[C@]1(c2cccc(-c3cncc(F)c3)c2)N=C(N)[C@H]2CCCCN21 (relative stereo) | 9.2 | 2 |  | 

Now from value to compound, other results behind:

pKa (physchem [1]) | chromatographic logD (physchem [2]) | Papp A→B at 10 µM (in vitro) [×10⁻⁶ cm/s] | SMILES | further results
9.3 | 2.5 | 13 | COc1cccc(-c2cccc(C3(C)N=C(N)CCO3)c2)c1 (stereo not given) | 
9.3 | 3.3 | 2.1 | CC1(c2cccc(-c3cccc(Cl)c3)c2)N=C(N)CCO1 (stereo not given) | 
9.1 | < 0 | 21 | CC1(c2cccc(-c3cncnc3)c2)N=C(N)CCS1 (stereo not given) | Kp at […] (in vivo [3]): 1.4; Kp uu at […] (in vivo [4]): 0.27; fraction unbound at […] (in vivo [5]): 0.89; fraction unbound at […] (in vivo [6]): 0.074
9.3 | 2.5 | 5.2 | COc1cccc(-c2cccc(C3(C)N=C(N)CCS3)c2)c1 (stereo not given) | 
9.8 | 2.1 | 20 | COc1cccc(-c2cccc(C3(C)COCC(N)=N3)c2)c1 (stereo not given) | 
10.5 |  |  | COc1cccc(-c2cccc(C3(C)CSCC(N)=N3)c2)c1 (stereo not given) | 
7 | 2.5 | 72 | COc1cccc(-c2cccc(C3(C)CCSC(N)=N3)c2)c1 (stereo not given) | Kp uu at […] (in vivo [7]): 0.64; Kp at […] (in vivo [8]): 8.9; fraction unbound at […] (in vivo [9]): 0.07; fraction unbound at […] (in vivo [10]): 0.005
6.9 | 3.6 | 15 | COc1cccc(-c2cccc(C3(C)N=C(N)CS3)c2)c1 (stereo not given) | 
6.2 | 2.9 | 19 | COc1ccc(C2(c3cccc(-c4cccnc4)c3)N=C(N)CS2)cc1 (stereo not given) | Kp at […] (in vivo [3]): 0.9; Kp uu at […] (in vivo [4]): 1.3; fraction unbound at […] (in vivo [5]): 0.007; fraction unbound at […] (in vivo [6]): 0.01
5.4 |  |  | COc1cccc(-c2cccc(C3(c4ccncc4)N=C(N)CS3)c2)c1 (stereo not given) | 
6.5 | 1.4 | 16 | COc1cccc(-c2cccc(C3(C)N=C(N)CN3C(C)=O)c2)c1 (stereo not given) | 
 | 1.8 |  | COc1ccc(C2(c3cccc(-c4cccnc4)c3)CC(OC)C(N)=N2)cc1 (stereo in doubt; form 4) | 
